One data set concerns M5M7. Briefly: Test B greenhouse phytotoxicity, M5M7. It is filed as in vivo, sunflower. Here is the method:
(§1) A greenhouse experiment was conducted to evaluate the spectrum of tolerance of three homozygous resistant mutants to various herbicides inhibiting acetolactate synthase (ALS) as their mode of action. The inbred lines tested were the 5th generation self-pollinated maintainers, M5M7, M5M11 and M5M12, as well as the 4th generation male sterile back-crosses BC4-M5M7, BC4-M5M11 and BC4-M5M12. Treatments of formulated herbicides were applied post-emergence at the 4-leaf stage. Application rates of the test herbicides were chosen to coincide with the rates commonly used in the crops for which they are registered. The application rate of imazethapyr was chosen to match the rate recommended to control parasitic weeds in sunflowers by L. García-Torres et al., Weed Technology 1995, 9, 819-824. Wild type H89 inbred sunflower was not included in this test, because the many of the tested herbicides are known to be efficacious in controlling volunteer sunflower as a weed. Treatments were replicated twice. […] A rating of 0% phytotoxicity means no crop injury.

The subject of a further data set is BC4-M5M7. Briefly: Test B greenhouse phytotoxicity, BC4-M5M7. Format: in vivo, sunflower. Here is the method:
as §1

A further data set concerns BC4-M5M11. Briefly: Test B greenhouse phytotoxicity, BC4-M5M11. It is filed as in vivo, sunflower. Here is the method:
as §1

A further data set has as its system M5M12. As to the kind of experiment: Test B greenhouse phytotoxicity, M5M12. It is filed as in vivo, sunflower. Here is the method: as §1
The subject of a further data set is M5M11. Briefly: Test B greenhouse phytotoxicity, M5M11. It is filed as in vivo, sunflower. Here is the method:
as §1

The subject of data set [1] is homozygous progeny of the three mutant sources. It is filed as in vivo, sunflower. The settings on record: Test B application rates, post-emergence. Here is the method:
as §1

The subject of the next data set is BC4-M5M12. As to the kind of experiment: Test B greenhouse phytotoxicity, BC4-M5M12. Format: in vivo, sunflower. Here is the method: as §1
The subject of the next data set is BC4-M5M7 × PHA155. As to the kind of experiment: Test C field phytotoxicity, BC4-M5M7 × PHA155. It is filed as in vivo, sunflower. An excerpt: (§2) A rating of 0% phytotoxicity means no crop injury.
Another data set deals with BC4-M5M12 × PHA155. As to the kind of experiment: Test C field phytotoxicity, BC4-M5M12 × PHA155. Format: in vivo, sunflower.
Source text: as §2

Data set [2] relates to BC4-M5M12 × PHA155 hybrid. As to the kind of experiment: Test E injury to sunflower hybrid. The note with it: in vivo. Format: in vivo. Here is the method:
(§3) Based on the results from Test D, a modified protocol was developed to include three timings of post-emergence treatment. The hybrid BC4-M5M12 (female parent)×PHA155 restorer line (male parent) described in Test C was used in this test. Various herbicide programs were tested using three replications. […] Seed coatings of these formulated herbicides were applied to 6 kg of seeds in such amount that considering the distribution of the coated seeds in each pot, the herbicide active ingredient (a.i.) application rates per hectare were as indicated.
(§4) The treatments were applied similar to the methods described for Test D. Pre-emergence applications were broadcast only, not soil incorporated. For pre-emergence application, the pots were sprayed using the high rates of the herbicides two days after sowing the sunflower seeds. Post-emergence treatments were applied at the 4-6 leaf stage of sunflower (corresponding to early stage of Orobanche attachment; identified as “T1”), the 6-8 leaf stage of sunflower (corresponding to the mid stage of Orobanche attachment; nodules <5 mm diameter; identified as “T2”) and 8-12 leaf stage of sunflower (corresponding to late stage of Orobanche attachment; identified as “T3”). The mid-stage applications included the high as well as low application rates of each herbicide.
(§5) For comparison were also included in this test other acetolactate synthase-inhibiting herbicides reported in the literature as giving good weed control of Orobanche (L. García-Torres et al., Weed Research 1994, 34, 395-402; L. García-Torres et al., Weed Technology 1995, 9, 819-824; J. Hershenhorn et al., Weed Technology 1998, 12, 108-114).

The next data set concerns Orobanche cumana. Briefly: Test E control of Orobanche cumana in resistant sunflower hybrid. It is filed as in vivo. Here is the method:
The effect of the various treatments was evaluated 35 days after sowing. The sunflower roots were cleaned by washing in water, and the presence of Orobanche nodules was determined visually and by weighing root wet mass in comparison to check plants free of Orobanche infestation. […] The nodules caused by Orobanche increased root weight, and a correlation (r=0.7) was found between visual scores and weight measurements. Thus the weighing technique could be used to corroborate visual efficacy scorings. Orobanche emergence was also scored but found to be less useful to evaluate treatment efficiency at the evaluation timing of this test.
as §3, §4, §5

Where [3] appears, read: postemergence 6.25 g a.i./ha, 7 DAT.
Where [4] appears, read: postemergence 6.25 g a.i./ha, 15 DAT.
Where [5] appears, read: postemergence 6.25 g a.i./ha, 30 DAT.
The mark [6] stands for this setting: postemergence 12.5 g a.i./ha, 7 DAT.
Setting [7] is: postemergence 12.5 g a.i./ha, 15 DAT.
Where [8] appears, read: postemergence 12.5 g a.i./ha, 30 DAT.

SMILES strings stand for the structures. Where a name gives a salt, the structure may show the parent alone.

Experimental findings from patent US6822146B2, “Sulfonylurea-tolerant sunflower line M7” (priority 2000, dated 2004) are described below.

In the case of `COc1cc(OC)nc(NC(=O)NS(=O)(=O)N(C)S(C)(=O)=O)n1` [Amidosulfuron, amidosulfuron], the “Maximum Phytotoxicity” value in the data set with M5M7 (in vivo) is on record as 52.5%; in the data set on BC4-M5M7 (in vivo), 47.5%; with BC4-M5M11 (in vivo), 57.5%; with M5M12 (in vivo), 45%; in the data set on M5M11 (in vivo) it was 60%; in the data set on BC4-M5M12 (in vivo), 55%. The “tolerance of the mutants” value in data set [1] is “somewhat sensitive”.
In the case of `CCOC(=O)c1ccccc1S(=O)(=O)NC(=O)Nc1nc(Cl)cc(OC)n1` [Chlorimuron-ethyl, chlorimuron-ethyl], the “Phytotoxicity Rating After Treatment” value with BC4-M5M7 × PHA155 (setting [3]) is on record as 83%; in the data set with BC4-M5M7 × PHA155 (setting [4]), 73%; in the data set with BC4-M5M7 × PHA155 (setting [5]) it was 67%; in the data set with BC4-M5M7 × PHA155 (setting [6]), 85%; in the data set on BC4-M5M7 × PHA155 (setting [7]), 83%; in the data set with BC4-M5M7 × PHA155 (setting [8]), 83%. Further, the “Phytotoxicity Rating After Treatment” value in the data set with BC4-M5M12 × PHA155 (setting [3]) is on record as 70%; with BC4-M5M12 × PHA155 (setting [4]) it was 80%; in the data set on BC4-M5M12 × PHA155 (setting [5]), 68%; in the data set with BC4-M5M12 × PHA155 (setting [6]), 80%; in the data set with BC4-M5M12 × PHA155 (setting [7]) it was 90%; in the data set on BC4-M5M12 × PHA155 (setting [8]) it was 88%.
In the case of `COC(=O)c1ccc(C(F)(F)F)nc1S(=O)(=O)NC(=O)Nc1nc(OC)cc(OC)n1` [Flupyrsulfuron-methyl-sodium], the “Maximum Phytotoxicity” value in the data set on M5M7 (in vivo) stood at 62.5%; in the data set with BC4-M5M7 (in vivo), 42.5%; with BC4-M5M11 (in vivo) it was 60%; in the data set on M5M12 (in vivo), 57.5%; in the data set on M5M11 (in vivo), 50%; in the data set on BC4-M5M12 (in vivo) it was 50%. In [1], the “tolerance of the mutants” value is recorded as “somewhat sensitive”.
On to `COC(=O)c1c(Cl)nn(C)c1S(=O)(=O)NC(=O)Nc1nc(OC)cc(OC)n1` [Halosulfuron-methyl, halosulfuron-methyl], for which the “Maximum Phytotoxicity” value in the data set on M5M7 (M5M7, 45 g a.i./ha post-emergence 4-leaf stage) turned out to be 50%; in the data set with BC4-M5M7 (BC4-M5M7, 45 g a.i./ha post-emergence 4-leaf stage), 60%; in the data set with BC4-M5M11 (BC4-M5M11, 45 g a.i./ha post-emergence 4-leaf stage), 65%; with M5M12 (M5M12, 45 g a.i./ha post-emergence 4-leaf stage) it was 60%; with M5M11 (M5M11, 45 g a.i./ha post-emergence 4-leaf stage) it was 60%; in the data set on BC4-M5M12 (BC4-M5M12, 45 g a.i./ha post-emergence 4-leaf stage), 65%. In addition, in data set [1], the “tolerance of the mutants” value is recorded as “somewhat sensitive”.
Consider `CCc1cnc(C2=NC(C)(C(C)C)C(=O)N2)c(C(=O)O)c1` (stereo not drawn) [Imazethapyr (ammonium salt), Imazethapyr], for which the “Maximum Phytotoxicity” value in the data set with M5M7 (in vivo) was determined as 22.5%; in the data set on BC4-M5M7 (in vivo), 20%; in the data set on BC4-M5M11 (in vivo), 25%; in the data set with M5M12 (in vivo), 22.5%; in the data set with M5M11 (in vivo), 30%; with BC4-M5M12 (in vivo) it was 30%. Moreover, the Injury in data set [2] is given as 0%. Moreover, the “tolerance of the mutants” value in data set [1] is “marginal tolerance”. For the same compound, the “relative efficacy in controlling Orobanche” value in the data set on Orobanche cumana (Test E rates, metsulfuron-methyl compared with tribenuron-methyl) was “less efficacious in controlling Orobanche”. In addition, the Control in the data set with Orobanche cumana (pre-emergence 40 g a.i./ha) is 60%.
As to `COc1cc(OC)nc(Sc2cccc(Cl)c2C(=O)O)n1` [Pyrithiobac-sodium], the “Maximum Phytotoxicity” value in the data set with M5M7 (in vivo) is listed as 37.5%; in the data set with BC4-M5M7 (in vivo), 35%; in the data set on BC4-M5M11 (in vivo), 42.5%; with M5M12 (in vivo), 40%; in the data set with M5M11 (in vivo), 50%; in the data set with BC4-M5M12 (in vivo), 40%. The “tolerance of the mutants” value in data set [1] was “somewhat sensitive”.
Turning to `CCS(=O)(=O)c1nc2ccccn2c1S(=O)(=O)NC(=O)Nc1nc(OC)cc(OC)n1` [Sulfosulfuron], the “Maximum Phytotoxicity” value with M5M7 (in vivo) is 50%; in the data set with BC4-M5M7 (in vivo), 47.5%; in the data set with BC4-M5M11 (in vivo), 57.5%; with M5M12 (in vivo), 65%; with M5M11 (in vivo) it was 60%; in the data set with BC4-M5M12 (in vivo) it was 50%. Further, the “tolerance of the mutants” value in data set [1] is “somewhat sensitive”.
